Like-named read-outs stand apart in the source and are kept apart here.
Key:
UGT (glucuronidation) = assay: Ataluren glucuronidation kinetics, human kidney microsomes; assay type: in vitro ADME; details: human, pooled human kidney microsomes, pH 7.5, HKM, 0% BSA; read-out: CLint,u,UGT
Method: (§1) Ataluren at 0.5, 2.5, 12.5, 25, 50, 100, 200, and 400 µmol/L, was incubated (n = 3) at 37°C with recombinant human UGT1A9 and with pooled microsomes from human liver, kidney, and intestine (0.025 mg protein/mL, preactivated with alamethicin at 20 µg/mL) in Tris‐HCl buffer (0.1 mol/L, pH 7.5), in the presence of 1 mmol/L EDTA, 5 mmol/L MgCl2, with or without 0.5%, 1%, or 2% BSA. The incubation (100 µL final volume with 0.5% DMSO) was started by adding an equal volume of UDPGA (5 mmol/L) in Tris‐HCl buffer (0.1 mol/L, pH 7.5). After 30 minutes incubation, the incubation mixtures were combined with 0.3 mL of an internal standard solution in acetonitrile with 1% formic acid, followed by membrane plate filtration. The filtrates were used for LC‐MS/MS analysis to quantify the formation of ataluren‐O‐1β‐acyl glucuronide. Detailed LC‐MS/MS conditions are summarized in LC‐MS/MS Analysis section. Ataluren acyl glucuronide formation rate after 30 minutes incubation was calculated using the amount of metabolite formed (pmol) divided by the protein amount in the incubation sample (0.0025 mg) and the incubation time (30 minutes). Ataluren glucuronidation kinetic parameters were determined with and without adjusting BSA binding by nonlinear regression (GraphPad Prism, 5version 5.04, GraphPad Software, Inc.) using Michaelis‐Menten equation which was the best fit compared with other models. The intrinsic clearance was calculated as CLint = Vmax/Km. In order to compare unbound intrinsic clearance by glucuronidation (CLint,u,UGT) in different tissues, CLint,u,UGT was expressed per gram of tissue by correcting the values for the microsomal protein yield, resulting in scaled CLint,u,UGT. Microsomal protein yields of 40.0, 12.8, and 20.6 mg protein/g tissue were used for hepatic, renal, and intestinal data, respectively. ^26
(§2) The high‐throughput membrane ultrafiltration method ^27 was used to determine the fraction unbound in the incubation (n = 3). Incubation mixtures and procedures were essentially the same as the above except that UDPGA (5 mmol/L) was replaced with Tris‐HCl buffer (0.1 mol/L, pH 7.5). After 15 minutes incubation, aliquot was transferred to a Millipore Multiscreen Ultracel‐10 filter plate (10 kDa molecular mass cut off; EMD Millipore). The plate was centrifuged at 37°C and 3710 g. After 30 minutes centrifugation, aliquots of ultrafiltrates and incubation mixtures prior to ultrafiltration were quenched with an internal standard solution in acetonitrile, followed by membrane plate filtration. The filtrates were used for LC‐MS/MS analysis to quantify the concentration of ataluren. The same LC‐MS/MS conditions described above are summarized in LC‐MS/MS Analysis section. The free fraction = Cu/Cm, where Cu is the concentration of ataluren in the ultrafiltrate and Cm is the concentration of ataluren in the incubation system before centrifugation. Unbound Km (Km, u) was recalculated by applying Michaelis‐Menten equation using free ataluren concentrations after correcting BSA binding at each ataluren and BSA concentration level.
(§3) Quantification of ataluren‐O‐1β‐acyl glucuronide formation was conducted on an Accela pump and a PAL autosampler equipped with a TSQ Quantum Ultra mass spectrometer (Thermo Fisher Scientific). A Waters Acquity BEH column (C18, 1.7 µm, 50 × 2.1 mm; Waters Cooperation) was used and maintained at 50°C. The mobile phases were 0.1% formic acid in water (A) and acetonitrile (B). The flow rate was 0.6 mL/min and gradient program was as follows: linear gradient from 0% B to 95% B in 0.5 minutes and hold isocratic at 95% B for 1 minute; linear gradient from 95% B to 0% B in 0.1 minutes and hold isocratic at 0% B for 0.4 minutes. TSQ Quantum Ultra mass spectrometer was equipped with a heated electrospray ionization source operated in negative‐ion mode with a vaporizer temperature of 350°C, capillary temperature of 380°C, and spray voltage of 3 kV. […]

[1] = as above; assay type: in vitro ADME; details: for CLint,u,UGT (scaled) / K m / K m, u / V max: HKM; for CLint,u,UGT (scaled): 12.8 mg protein/g tissue; for K m / K m, u / V max: mean ± SE; for K m / K m, u / V max / fraction unbound at 15 min: n = 3; for fraction unbound at 15 min / microsomal CLint: human, pH 7.5, HKM; for fraction unbound at 15 min: pooled human kidney microsomes incubation mixture, mean ± SD, read-out: fu,inc; for microsomal CLint: pooled human kidney microsomes, read-out: CLint,u,UGT
Method: as §1, §2, §3

## O=C(O)c1cccc(-c2noc(-c3ccccc3F)n2)c1 [ataluren, Ataluren]
UGT (glucuronidation)
  microsomal CLint: 324 µL/min/mg
[1]; HKM vs HLM
  human kidney microsomes more active than human liver microsomes in ataluren glucuronidation, in terms of CLint,u/mg protein: about 3.7 fold
[1]; 0% BSA
  CLint,u,UGT (scaled): 4.15 mL/min/g of tissue
  K m: 10.8 ± 1.40 µmol/L
  K m, u: 10.8 ± 1.40 µmol/L
  V max: 3948 ± 90.3 pmol/min/mg
  fraction unbound at 15 min: 1 ± 0.121
[1]; 0.5% BSA
  CLint,u,UGT (scaled): 12.18 mL/min/g of tissue
  K m: 33.0 ± 7.36 µmol/L
  K m, u: 3.09 ± 0.671 µmol/L
  V max: 2941 ± 168 pmol/min/mg
  fraction unbound at 15 min: 0.095 ± 0.003
  microsomal CLint: 952 µL/min/mg
[1]; 1% BSA
  CLint,u,UGT (scaled): 20.0 mL/min/g of tissue
  K m: 36.5 ± 6.31 µmol/L
  K m, u: 1.64 ± 0.334 µmol/L
  V max: 2563 ± 137 pmol/min/mg
  fraction unbound at 15 min: 0.05 ± 0.002
  microsomal CLint: 1560 µL/min/mg
[1]; 2% BSA
  CLint,u,UGT (scaled): 16.5 mL/min/g of tissue
  K m: 74.1 ± 8.38 µmol/L
  K m, u: 1.82 ± 0.291 µmol/L
  V max: 2342 ± 119 pmol/min/mg
  fraction unbound at 15 min: 0.03 ± 0.003
  microsomal CLint: 1290 µL/min/mg
[1]; human kidney microsomes, with vs without BSA
  maximal effect of BSA on CLint,u (increase): ~4.8 fold
